Data set [1] has as its system human myeloid progenitors (CFU-GM). The data set can be described thus: Myeloid CFU assay in human bone marrow cells. The class given is cell-based. The note with it: 10 μM, 14 days culture, human bone marrow cells. As for the experimental part:
Compounds were tested to evaluate the potential effects on human erythroid and myeloid progenitors using colony forming cell assays. Clonogenic progenitors of human erythroid (CFU-E, BFU-E), granulocyte-monocyte (CFU-GM) and multipotential (CFU-GEMM) lineages were assessed in a semi-solid methylcellulose-based media formulation containing rhlL-3 (10 ng/mL), rhGM-SCF (10 ng/mL), rhSCF (50 ng/mL) and Epo (3 U/mL).
Normal human bone marrow light density cells derived from normal bone marrow (NorCal Biologics, California) and qualified at ReachBio, were stored in the gaseous phase of liquid nitrogen (−152° C.) until required for the assay. On the day of the experiment, the cells were thawed rapidly, the contents of each vial was diluted in 10 mL of Iscove's modified Dulbecco's medium containing 10% fetal bovine serum (IMDM+10% FBS) and washed by centrifugation (approximately 1200 r.p.m. for 10 minutes, room temperature). The supernatant was discarded and the cell pellets resuspended in a known volume of IMDM+10% FBS. A cell count (3% glacial acetic acid) and viability assessment (trypan blue exclusion test) was performed for the bone marrow sample.
On the day of the experiment, the compounds were dissolved in DMSO to a stock concentration of 10 mM. Serial dilutions were prepared from the stock concentration to achieve concentrations of 2 and 0.4 mM. When added to the methylcellulose-based media at 1:1000 (v/v), the final test concentrations of 10, 2 and 0.4 μM were achieved. Additionally, 5-FU was evaluated at 1.0, 0.1 and 0.01 μg/mL.
Clonogenic progenitors of the human erythroid (CFU-E and BFU-E) and myeloid (CFU-GM) lineages were set up in the methylcellulose-based media formulations described above. All compounds were added to the medium to give the final desired concentrations (10, 2 and 0.4 μM). 5-Fluorouracil (Sigma Aldrich) was used as a positive control for progenitor proliferation (inhibition of colony growth) and was introduced to the human bone marrow cultures at 1.0, 0.1, and 0.01 μg/mL. Solvent control cultures (containing no compound but 0.1% DMSO) as well as standard controls (containing no compound and no DMSO) were also initiated.
Human myeloid and erythroid progenitor assays were initiated at 2.0×10^4 cells per culture. Following 14 days in culture, myeloid and erythroid colonies were assessed microscopically and scored by trained personnel. The colonies were divided into the following categories based on size and morphology: CFU-E, BFU-E, CFU-GM and CFU-GEMM.
The mean±one standard deviation of three replicate cultures was calculated for progenitors of each category (CFU-E, BFU-E, etc.). Two-tailed t-tests were performed to assess if there was a difference in the number of colonies generated between solvent control and treated cultures. Due to the potential subjectivity of colony enumeration, a p value of less than 0.01 is deemed significant. To calculate the concentration of 50% inhibition of colony growth (IC50) for each compound, a dose response curve was generated plotting the log of the compound concentration versus the percentage of control colony growth using XLfit software (IDBS). The concentration of 50% inhibition of colony growth (IC50) was calculated based on the sigmoid curve fit using Dose-Response, One-Site Model formula: y=A+[(B−A)/(1+((C/x)^D))], where A=the initial value (baseline response), B=maximum response, C=center (drug concentration that provokes a response halfway between A and B) and D=slope of the curve at midpoint. Further, plots and additional dose response curves were generated using GraphPad Prism 7.0.
Erythroid (CFU-E and BFU-E), myeloid (CFU-GM) and multi-potential (CFU-GEMM) colony enumeration was performed by trained personnel. The distribution of colony types as well as general colony and cellular morphology was analyzed. For statistical analysis colony numbers in compound treated cultures were compared to the solvent control cultures. […]

For data set [2], the target named is HDAC2 (Homo sapiens, UniProt Q92769). The data set can be described thus: HDAC2 enzymatic inhibition assay in SY5Y cell lysate with HDAC-Glo2 substrate. It counts as cell-based. Set-up: host or cells: SH-SY5Y. The settings on record: SH-SY5Y cells, 5 h compound incubation, HDAC-Glo 2 reagent. The method, then:
HDAC2 Enzymatic Inhibition Assay in SY5Y Cell Lysate with HDAC-Glo2 Substrate
SH-SY5Y cells (Sigma) were cultured in Eagle's Modified Essential Medium supplemented with 10% fetal bovine serum and pen/strep. Twenty-four hours prior to compound dosing 20 uL of cells were plated in white 384 well plates at a density of 1,500 cells/well. Compounds were serially diluted in neat DMSO and then diluted 1:100 v/v into media without FBS and mixed. Media was removed from the plated cells and the diluted compounds in serum free media (1% v/v final DMSO) were added and incubated at 37.0 for five hours. Ten uL of HDAC-Glo 2 reagent with 0.1% Triton X-100 was then added, the plate was mixed and allowed to develop at room temperature for 100 minutes. Plates were then read with a Spectramax LMax luminometer employing a 0.4 s integration time. Dose response curves were constructed with normalized data where CI-994 at 100 uM was defined as 100% inhibition and DMSO alone as 0% inhibition.

The target in data set [3] is T1, CYP3A4 (Homo sapiens, UniProt P08684).
T1 construct: Human liver microsomes were obtained from BD Gentest; tissue BD Gentest; host or cells: human liver microsomes
The data set can be described thus: CYP inhibition assay in human liver microsomes (3A4, midazolam). The class given is in vitro ADME. The settings on record: for inhibition at 5 min, 10 µM: probe midazolam, human liver microsomes, midazolam. As for the experimental part: Compounds were tested to evaluate their inhibitory potential on CYP2D6 and CYP3A4 (midazolam) using human liver microsomes. Human liver microsomes were obtained from BD Gentest, and each compound was run in duplicate.
The test compounds and reference inhibitors (quinidine for 2D6, ketoconazole for 3A4) were plated in a 96-well plate by transferring 8 μL of 10 mM stock solutions of compound in DMSO to 12 μL of acetonitrile. Individual inhibitor spiking solutions were prepared for CYP2D6 and CYP3A4 (8 μL of DMSO stock added to 12 μL of acetonitrile). Next added 400 μL of 0.2 mg/mL HLM to the assay wells and then added 2 μL of 400× test compound into the designated wells on ice. Next, added 200 μL of 0.2 mg/mL HLM to the assay wells and then added 1 μL of reference inhibitor solutions into the designated wells. The following solutions were added (in duplicate) to a 96-well assay plate on ice: The test compounds and reference inhibitors (quinidine for 2D6, ketoconazole for 3A4) were tested using the following experimental procedure:
10. Incubate the assay plate at 37° C. 5 min for 3A4, 10 min for 2D6.
11. Stop the reaction by adding 120 μL of ACN containing Internal Standard. For CYP3A4, the internal standard is 1′OH-midazolam-D4 (10 μM solution diluted to a final concentration of 0.1 μM by adding 100 μL internal standard stock to 10 mL ACN). For CYP2D6, the internal standard is 1-OH-Bufuralol-maleate-[D9] (49 μM solution diluted to a final concentration of 0.1 μM by adding 20 μL internal standard stock to 10 mL ACN).
The assessment on CYP isoform inhibition is as follows based on the assay results: if percentage of CYP inhibition is higher than 50%, indicates potent inhibition; if percentage of CYP inhibition is between 30-50%, indicates […]; if percentage of CYP inhibition is less than 30%, indicates slight or no inhibition. If the percentage of CYP inhibition is less than −30%, this indicates the compound may have some kind of activation of this isoform.
Background: Microsomes from liver hold many membrane-bound enzymes, among them those of drug oxidation.

From patent publication US11286256B2, “Bicyclic inhibitors of histone deacetylase” (Alkermes, Inc., priority 2017, dated 2022) come the findings set out here.

What is called IC50 is the concentration at which inhibition is half-maximal. Usually inhibition stands for the change of the read-out against control, counted positive when it falls.

T1 sequence (P08684 whole entry): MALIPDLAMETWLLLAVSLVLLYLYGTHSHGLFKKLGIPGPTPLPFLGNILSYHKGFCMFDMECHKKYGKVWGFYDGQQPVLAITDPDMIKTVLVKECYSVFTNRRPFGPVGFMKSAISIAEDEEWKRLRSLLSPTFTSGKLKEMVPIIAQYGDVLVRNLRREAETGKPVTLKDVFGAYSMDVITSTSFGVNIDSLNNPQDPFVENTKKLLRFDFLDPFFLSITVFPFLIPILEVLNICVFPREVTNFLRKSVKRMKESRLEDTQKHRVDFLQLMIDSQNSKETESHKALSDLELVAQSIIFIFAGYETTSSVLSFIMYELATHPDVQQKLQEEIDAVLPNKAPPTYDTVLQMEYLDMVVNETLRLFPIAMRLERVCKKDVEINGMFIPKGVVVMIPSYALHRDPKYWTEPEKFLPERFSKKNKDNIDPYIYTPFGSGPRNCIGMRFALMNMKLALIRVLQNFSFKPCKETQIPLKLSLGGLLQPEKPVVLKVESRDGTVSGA
HDAC2, sequence (Q92769 whole entry): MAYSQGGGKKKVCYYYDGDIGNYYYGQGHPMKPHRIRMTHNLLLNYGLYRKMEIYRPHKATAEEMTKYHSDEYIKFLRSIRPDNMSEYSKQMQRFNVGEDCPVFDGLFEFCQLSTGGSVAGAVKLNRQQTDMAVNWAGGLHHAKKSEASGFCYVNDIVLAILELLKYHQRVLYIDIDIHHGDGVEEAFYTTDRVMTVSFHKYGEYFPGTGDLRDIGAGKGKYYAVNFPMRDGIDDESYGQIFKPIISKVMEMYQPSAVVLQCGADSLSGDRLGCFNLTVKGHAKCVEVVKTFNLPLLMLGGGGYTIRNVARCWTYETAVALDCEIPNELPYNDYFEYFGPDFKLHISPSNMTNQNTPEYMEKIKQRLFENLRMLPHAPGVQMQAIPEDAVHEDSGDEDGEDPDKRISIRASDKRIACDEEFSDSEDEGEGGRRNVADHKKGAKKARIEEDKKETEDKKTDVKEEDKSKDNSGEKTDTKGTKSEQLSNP

With `Nc1ccc(-c2ccc(F)cc2)cc1NC(=O)N1Cc2nccnc2C1` [Comparator A], the “CFU % Control remaining @ 10 μM Myeloid” value in data set [1] worked out at 0%. In data set [2], this molecule gave a half-inhibitory concentration (IC50) of 369 nM. The inhibition at 5 min, 10 µM in data set [3] was -22%.
Regarding `Nc1ccc(-c2cccs2)nc1NC(=O)N1Cc2nccnc2C1` [Comparator C], in data set [1], the “CFU % Control remaining @ 10 μM Myeloid” value was determined as 20%. In data set [2], this molecule showed an IC50 of 279 nM. For the same molecule, the inhibition at 5 min, 10 µM in data set [3] worked out at 1%.
The corresponding values for `COCc1cc2c(cn1)CN(C(=O)Nc1nc(-c3ccc(F)cc3F)ccc1N)C2` [Compound 1] are 86%, 777 nM and 27%.
The corresponding values for `Nc1ccc(-c2cccs2)nc1NC(=O)N1Cc2cncnc2C1` [Comparator E] are 83%, 278 nM and -17%.
The corresponding values for `Nc1ccc(-c2ccc(F)cc2)nc1NC(=O)N1Cc2nccnc2C1` [Comparator B] are 25%, 485 nM and 1.5%.
As to `Nc1ccc(-c2ccc(F)cc2)nc1NC(=O)N1Cc2cncnc2C1` [Comparator D], the “CFU % Control remaining @ 10 μM Myeloid” value in data set [1] was found to be 84%. This molecule registered an IC50 in data set [2] of 331 nM. The inhibition at 5 min, 10 µM in data set [3] was found to be 2%.
In the case of `Cc1ncc2c(n1)CN(C(=O)Nc1nc(-c3cccs3)ccc1N)C2` [Compound 2], the “CFU % Control remaining @ 10 μM Myeloid” value in data set [1] was 59%. This molecule had a 50% inhibitory concentration (IC50) in data set [2] of 577 nM. In addition, in data set [3] (10 μM), the “inhibition of CYP3A4 (in words)” value is reported as “no significant inhibition”. Moreover, in data set [3], the inhibition at 5 min, 10 µM is 1%.
